Reference: US20090181075A1, “DROSPIRENONE CONTAINING TRANSDERMAL DRUG DELIVERY DEVICES AND METHODS OF DELIVERY THEREOF” (priority 2005, published 2009)

Test: Drospirenone solubility in liquid excipients
Type: physicochemical
Conditions: weight-weight basis
Method: The solubility of drospirenone in liquid excipients was obtained using the following test method. Drospirenone was incrementally added to excipient until it stopped dissolving. The saturated solution was then filtered through a 0.45 μm polytetrafluoroethylene filter to remove excess drug particles. The concentration of drospirenone was then analyzed for drug using conventional high performance liquid chromatography methods. The values are reported as the percent solubility on a weight-weight basis.

C[C@]12CCC(=O)C=C1[C@@H]1C[C@@H]1[C@H]1[C@@H]3[C@@H]4C[C@@H]4[C@@]4(CCC(=O)O4)[C@@]3(C)CC[C@@H]12 [drospirenone, 6β,7β,15β,16β-dimethylene-3-oxo-17α-pregn-4-ene-21,17-carbolactone]
solubility of drospirenone (in benzyl alcohol): 44.4%
solubility of drospirenone (in benzyl lactate): 22.6%
solubility of drospirenone (in glyceryl monooleate): 2.0%
solubility of drospirenone (in lauryl alcohol): 1.0%
solubility of drospirenone (in lauryl lactate): 1.4%
solubility of drospirenone (in methyl lactate): 11.6%
solubility of drospirenone (in methyl laurate): 0.6%
